US9040714B2 (MannKind Corporation, priority 2010, dated 2015)
Counter-ions that a name gives are not always drawn.

Tested on: IRE-1α-mediated XBP-1 splicing in human myeloma MM.1s cells
Experiment: Cellular EC50: endogenous XBP-1 splicing in myeloma cells by RT-PCR (DTT stress)
Assay type: cell-based
Conditions: MM1.S, average cellular EC50, XBP-1 splicing in myeloma cells, read-out: EC50_av
Protocol: Human myeloma MM.1s cells are incubated with a compound for 1.25 hours before stressing the cells with 2 mM dithiothreitol (DTT). After an additional 45 minutes (2 hours total) with compound and DTT, the cells are harvested with TRIZOL® (a mono-phasic solution of phenol and guanidine isothiocyanate), and total RNA is prepared as directed by the manufacturer (Invitrogen). Human XBP-1 is amplified by RT-PCR with the following primers, which flank the 26 base unconventional intron excised by IRE-1α:
RT-PCR of unstressed (U) cells then generates the upper band. When cells are stressed (S) with the endoplasmic reticulum (ER) stressing agent DTT, IRE-1α is activated due to accumulating unfolded protein and the resulting RT-PCR, product is 26 base pairs shorter.
Compounds which pass specificity assays are assayed for cellular EC50 using endogenous XBP-1 splicing in myeloma cells. XBP-1 is regulated through the excision of a 26 nucleotide intron from the XBP-1 mRNA by the highly specific endoribonuclease activity of IRE-1α. […] This splicing event is used to measure IRE-1α activity on XBP-1 mRNA in cells and tissues.
Briefly, compounds are incubated in the presence or absence of an ER stress agent (e.g., DTT), and the ratio of XBP-1u (unspliced) to XBP-1 s (spliced) is quantified by RT-PCR. The ED50 is determined as the 50% XBP-1s to total XPB-1 levels.

EC50 | Compound
> 10 µM | O=Cc1c(O)ccc2nc(-c3cccc(C(=O)N4CCCC4)c3)ccc12
> 10 µM | CC1CCN(C(=O)c2ccc(-c3ccc4c(C=O)c(O)ccc4n3)cc2)CC1 [Compound 47]
< 10 µM | O=Cc1c(O)ccc2nc(-c3ccc(C(=O)N4CCCC4)cc3)ccc12 [Compound 48]
< 10 µM | CC(=O)NC1CCN(c2ccc3c(C=O)c(O)ccc3n2)C1 (stereo not drawn) [Compound 51]
> 10 µM | CC1CCN(C(=O)c2ccc(-c3nc4ccc(O)c(C=O)c4s3)cc2)CC1 [Compound 57]
> 10 µM | COC(=O)c1ccc(-c2nc3ccc(O)c(C=O)c3[nH]2)cc1 [Compound 59]
> 10 µM | O=Cc1c(O)ccc2nc(-c3ccc(C(=O)NCCN4CCOCC4)cc3)[nH]c12 [Compound 60]
< 10 µM | Cc1c(Br)c(=O)oc2c(C=O)c(O)ccc12 [Example 1]
< 10 µM | Cc1c(-c2ccc(C(=O)N3CCN(C)CC3)cc2)c(=O)oc2c(C=O)c(O)ccc12 [Example 2]
> 10 µM | CCN(CC)CCc1c(C)c2ccc(O)c(C=O)c2oc1=O [Example 4]
< 10 µM | Cc1c(-c2cccc(C(=O)N3CCOCC3)c2)c(=O)oc2c(C=O)c(O)ccc12 [Example 13]
< 10 µM | Cc1c(CCC(=O)N2CCN(C)CC2)c(=O)oc2c(C=O)c(O)ccc12 [Example 15]
< 10 µM | Cc1c(-c2ccc(C(=O)N3CCC(C)CC3)cc2)c(=O)oc2c(C=O)c(O)ccc12 [Example 19]
< 10 µM | Cc1cc(=O)oc2c(C=O)c(O)c(F)cc12 [Example 23, hydrochloride]
< 10 µM | O=Cc1c(O)ccc2nc(-c3cccc(C(=O)N4CCOCC4)c3)ccc12 [Example 43]
> 10 µM | CN1CCN(C2CCN(c3nc4ccc(O)c(C=O)c4s3)C2)CC1 (stereo not drawn) [Example 54]
< 10 µM | Cc1c(CCC(=O)N2CCOCC2)c(=O)oc2c(C=O)c(O)ccc12 [Example 69]
> 10 µM | Cc1oc2c(C=O)c(O)ccc2c(=O)c1CCC(=O)N1CCN(C)CC1 [Example 88]
> 10 µM | COc1cc2c(=O)c(CCC(=O)NCCN3CCOCC3)c(C)oc2c(C=O)c1O [Example 93]
> 10 µM | COc1cc2c(=O)c(CCC(=O)N3CCN(C)CC3)c(C)oc2c(C=O)c1O [Example 94]
< 10 µM | COCc1cc(=O)oc2c(C=O)c(O)cc(OC)c12 [Example 122]
< 10 µM | COCCc1c(C)c2c(O)cc(O)c(C=O)c2oc1=O [Example 123]
< 10 µM | COCCc1c(C)c2c(OC)cc(O)c(C=O)c2oc1=O [Example 124]
< 10 µM | COCCc1c(C)c2cc(OC)c(O)c(C=O)c2oc1=O [Example 125]
< 10 µM | C=CCc1c(C)c2c(OC)cc(O)c(C=O)c2oc1=O [Example 126]
< 10 µM | COc1cc(O)c(C=O)c2oc(=O)c(C)c(CN3CCOCC3)c12 [Example 134]
< 10 µM | COc1cc(O)c(C=O)c2oc(=O)c(C)c(CN(C)C)c12 [Example 135]

EC50 | Compound
> 10 µM | CCOC(=O)CCc1c(C)c2cc(N(C)C(C)=O)c(O)c(C=O)c2oc1=O [Example 144]
< 10 µM | COCCOCCc1c(C)c2c(OC)cc(O)c(C=O)c2oc1=O [Example 145]
< 10 µM | CCOC(=O)Cc1c(C)c2c(OCCOC)cc(O)c(C=O)c2oc1=O [Example 158]
< 10 µM | COCCNC(=O)Cc1c(C)c2c(OCCOC)cc(O)c(C=O)c2oc1=O [Example 159]
< 10 µM | COCCOc1cc(O)c(C=O)c2oc(=O)c(CC(=O)N3CCOCC3)c(C)c12 [Example 160]
< 10 µM | CCNC(=O)Cc1c(C)c2c(OCCOC)cc(O)c(C=O)c2oc1=O [Example 162]
< 10 µM | COCCOc1cc(O)c(C=O)c2oc(=O)c(CC(=O)NCCN3CCOCC3)c(C)c12 [Example 163]
> 10 µM | COCCOc1cc(O)c(C=O)c2oc(=O)c(CC(=O)NCCN(C)C)c(C)c12 [Example 164]
< 10 µM | COCCOc1cc(O)c(C=O)c2oc(=O)c(C)c(C)c12 [Example 165]
< 10 µM | COc1cc2c(C)c(CC(=O)N3CCOCC3)c(=O)oc2c(C=O)c1O [Example 167]
< 10 µM | CCNC(=O)CCc1c(C)c2cc(OCCOC)c(O)c(C=O)c2oc1=O [Example 183]
< 10 µM | COCCOc1cc2c(C)c(CC(=O)NCCN3CCOCC3)c(=O)oc2c(C=O)c1O [Example 187]
< 10 µM | COCCOc1cc2c(C)c(CC(=O)N3CCOCC3)c(=O)oc2c(C=O)c1O [Example 188]
< 10 µM | COCCNC(=O)Cc1c(C)c2cc(OCCOC)c(O)c(C=O)c2oc1=O [Example 190]
< 10 µM | CCNC(=O)Cc1c(C)c2cc(OCCOC)c(O)c(C=O)c2oc1=O [Example 191]
< 10 µM | COc1cc(O)c(C=O)c2oc(=O)c(CCC(=O)NCCN(C)C)c(C)c12 [Example 195]
> 10 µM | COCCNC(=O)CCc1c(C)c2cc(OCCN3CCOCC3)c(O)c(C=O)c2oc1=O [Example 202]
< 10 µM | Cc1c(C)c2cc(OCCN3CCOCC3)c(O)c(C=O)c2oc1=O [Example 203]
> 10 µM | CCNC(=O)CCc1c(C)c2cc(OCCN3CCOCC3)c(O)c(C=O)c2oc1=O [Example 204]
10 µM | COCCNC(=O)Cc1c(C)c2cc(OCCN3CCOCC3)c(O)c(C=O)c2oc1=O [Example 205]
10 µM | Cc1c(CC(=O)N2CCOCC2)c(=O)oc2c(C=O)c(O)c(OCCN3CCOCC3)cc12 [Example 206]
> 10 µM | COc1cc2c(=O)c(CC(=O)N3CCOCC3)c(C)oc2c(C=O)c1O [Example 207]
< 10 µM | CCNC(=O)Cc1c(C)oc2c(C=O)c(O)c(OC)cc2c1=O [Example 209]
> 10 µM | COc1cc2c(=O)c(CC(=O)NCCN3CCOCC3)c(C)oc2c(C=O)c1O [Example 210]
> 10 µM | COc1cc2c(=O)c(CC(=O)NCCN(C)C)c(C)oc2c(C=O)c1O [Example 211]
> 10 µM | COCCNC(=O)CCc1c(C)oc2c(C=O)c(O)c(OC)cc2c1=O [Example 212]
> 10 µM | CCNC(=O)CCc1c(C)oc2c(C=O)c(O)c(OC)cc2c1=O [Example 213]

Compound | EC50
COCCOc1cc(O)c(C=O)c2oc(=O)c(CC(=O)N3CCN(C)CC3)c(C)c12 [Example 161] | < 10 µM
COc1cc(O)c(C=O)c2oc(=O)c(CC(=O)N3CCN(C)CC3)c(C)c12 [Example 178] | < 10 µM
COCCOc1cc2c(C)c(CC(=O)N3CCN(C)CC3)c(=O)oc2c(C=O)c1O [Example 189] | < 10 µM
COc1cc2c(=O)c(CC(=O)N3CCN(C)CC3)c(C)oc2c(C=O)c1O [Example 208] | > 10 µM

Same assay, conditions: MM1.S, read-out: EC50_av

Compound | EC50
O=Cc1c(O)ccc2nc(N3CCC(NC(=O)CN4CCOCC4)C3)ccc12 (stereo not drawn) [Compound 50] | < 10 µM
O=Cc1c(O)ccc2nc(-c3ccc(C(=O)O)cc3)[nH]c12 [Compound 58] | > 10 µM
CN1CCN(C(=O)c2ccc(-c3nc4ccc(O)c(C=O)c4[nH]3)cc2)CC1 [Compound 62] | > 10 µM
COc1cc2c(C)c(Br)c(=O)oc2c(C=O)c1O [Example 6] | < 10 µM
O=Cc1c(O)ccc2cc(-c3ccc(Br)cc3)c(=O)oc12 [Example 7] | > 10 µM
Cc1c(Br)c(=O)oc2c(C=O)c(O)c(F)cc12 [Example 9] | < 10 µM
Cc1c(-c2ccc(C(=O)N3CCCC3)cc2)c(=O)oc2c(C=O)c(O)ccc12 [Example 18] | < 10 µM
Cc1c(-c2cccc(C(=O)N3CCCC3)c2)c(=O)oc2c(C=O)c(O)ccc12 [Example 21] | > 10 µM
